# Assay results published in patent US20250136556A1, “NOVEL MODULATORS OF THE ARYL HYDROCARBON RECEPTOR AND METHODS OF USE THEREOF” (Allianthera (Suzhou) Biopharmaceutical Co., Ltd., priority 2021, published 2025).
# pEC50, pIC50: −log10 of the molar value. Read-outs that look alike come from different tables or passages of the source.
# What was measured:
# [1] = test system: AHR-regulated gene CYP1A1; experiment: AHR-regulated CYP1A1 expression in human monocytic U937 cell line (qPCR); settings: U937 cells, 16 hours, CYP1A1 relative to GAPDH
# Description: To evaluate the AHR agonist activity of the test compounds, quantitative PCR analysis was used to determine expression level of the AHR-regulated gene CYP1A1 in a human monocytic U937 cell line. U937 cells were seeded at a concentration of 5×10^5 cells/well in 200 μL of growth medium in 96-well cell culture microplates. CYP1A1 expression was induced with AHR agonists described in literature as a positive control or the test compounds for 16 hours. […] Unstimulated cells were used as the negative control. Taqman probes for human CYP1A1 (Hs01054797_g1) and human GAPDH (Hs02786624_g1) were used to analyze fold expression of CYP1A1 of GAPDH.
# [2] = test system: IL-6 gene expression in human primary M1 macrophage cells; experiment: AHR-regulated IL-6 inhibition in human primary M1 macrophage (qPCR); type: cell-based; settings: LPS/IFN-gamma/GM-CSF, 24 hours; for pIC50: read-out: M1 assay IL6 -IC50
# Description: Human M1 macrophage was differentiated from PBMC. Briefly, at day 1, monocytes were isolated from human PBMC using EasySe Human Monocyte Enrichment Kit without CD16 Depletion (Stemcell, 19058). The isolated monocytes were seeded at 3×10^7 cells in 15 cm dish using 30 ml medium containing 50 ng/ml GM-CSF (R&D, 215-GM-050/CF). At day 5, 30 ml fresh medium containing 50 ng/ml GM-CSF was added. At day 8, 1.5×10^5 cells/well were re-seeded into 24 wells plate, and 500 ul medium containing 10 ng/ml LPS (Sigma, L7770), 20 ng/ml IFN-gamma (PeproTech, 300-02), 50 ng/ml GM-CSF and the test compounds was added. […] The IL-6 expression was inhibited with AHR agonists described in literature as the positive inhibition control, alternatively the un-stimulated cells were used as the negative inhibition control. […] The primers for human GAPDH (F: […]; R: […]) and human IL-6 (F: […]; R: […]) were used to analyze fold expression of IL-6 of GAPDH by quantitative PCR.
# [3] = target: T1, Human Aryl Hydrocarbon Receptor (AHR) (Homo sapiens, UniProt P35869); experiment: AHR agonist reporter assay in human cell line (INDIGO luciferase reporter); type: cell-based; settings: reporter cells; for pEC50: 24 hours incubation; for AHR % activation to Tapinarof at 1 μM: 24 hours, value in brackets;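 on all read-outs here: firefly luciferase luminescence read on a plate reader, values normalized against positive and negative controls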
# T1 construct: purchased INDIGO Bioscience IB06001-32; host or cells: AHR Reporter Cell (proprietary kit cells)
# T1 sequence (P35869 11-848): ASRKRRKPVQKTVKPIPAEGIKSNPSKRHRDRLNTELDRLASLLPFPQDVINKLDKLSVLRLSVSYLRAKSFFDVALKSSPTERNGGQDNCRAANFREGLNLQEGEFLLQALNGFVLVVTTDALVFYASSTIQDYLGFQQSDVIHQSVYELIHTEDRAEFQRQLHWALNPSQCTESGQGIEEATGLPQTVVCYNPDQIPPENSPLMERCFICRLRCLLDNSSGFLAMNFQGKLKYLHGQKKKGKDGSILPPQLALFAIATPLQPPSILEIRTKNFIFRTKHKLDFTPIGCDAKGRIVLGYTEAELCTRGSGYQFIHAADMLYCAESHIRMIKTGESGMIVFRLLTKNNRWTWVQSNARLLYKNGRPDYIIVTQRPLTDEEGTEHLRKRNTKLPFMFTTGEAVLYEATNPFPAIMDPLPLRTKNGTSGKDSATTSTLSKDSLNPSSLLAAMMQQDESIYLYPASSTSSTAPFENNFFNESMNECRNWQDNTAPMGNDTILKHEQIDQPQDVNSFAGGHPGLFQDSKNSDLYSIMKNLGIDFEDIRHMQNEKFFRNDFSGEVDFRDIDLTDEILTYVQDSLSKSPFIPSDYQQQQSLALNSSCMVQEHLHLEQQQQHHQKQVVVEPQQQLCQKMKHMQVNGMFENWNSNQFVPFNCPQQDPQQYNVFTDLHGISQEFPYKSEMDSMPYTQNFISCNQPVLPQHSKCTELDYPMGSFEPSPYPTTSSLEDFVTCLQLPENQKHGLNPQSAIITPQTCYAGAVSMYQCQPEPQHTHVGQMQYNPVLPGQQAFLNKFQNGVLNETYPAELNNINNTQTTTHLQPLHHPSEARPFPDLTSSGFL
# Description: The AHR reporter assay was performed following the protocol of the Human Aryl Hydrocarbon Receptor (AHR) Reporter Assay System (INDIGO Bioscience, #IB06001-32). AHR Reporter Cell was thawed and pre-incubated in Cell Recovery Medium (CRM) for 6 hours. […] Following 24 hours incubation, the media was removed and Luciferase Detection Reagent (LDR) added. The firefly luciferase activity was quantified using a plate reader. Results were normalized by positive and negative controls.
# [4] = test system: Human Nuclear Factor (erythroid-derived2)-like 2 (Nrf2); experiment: Nrf2 transcription factor activity reporter assay in human cell line (INDIGO luciferase reporter); type: cell-based; settings: reporter cells; for pEC50: 24 hours incubation; for Nrf2 % activation to Tapinarof at 9 μM: 24 hours, value in brackets
# Description: The Nrf2 reporter assay was performed following the protocol of the Human Nuclear Factor (erythroid-derived2)-like 2 (Nrf2) Reporter Assay System (INDIGO Bioscience, #IB10001). Nrf2 Reporter Cell was thawed and pre-incubated in Cell Recovery Medium (CRM) for 6 hours. The media was then removed and the cells were incubated with Compound Screening Medium (CSM) in the absence (negative control) or presence of increasing concentrations of test compounds (typical dilution: 128 pM, 640 pM, 3.2 nM, 16 nM, 80 nM, 400 nM, […] in duplicates) for 24 hours. For positive control, cells activated with CDDO or Nrf2 agonists described in literature. Following 24 hours incubation, the media was removed and Luciferase Detection Reagent (LDR) added. The firefly luciferase activity was quantified using a plate reader. Results were normalized by positive and negative controls.
# [5] = first line of cell, read-out: AHR reEC50
# [6] = second line of cell, read-out: AHR abEC50
# [7] = first line of cell, read-out: Nrf2 reEC50
# [8] = second line of cell, read-out: Nrf2 EC50, second line of cell (head does not name it)
Compound,CYP1A1 (% activation to Tapinarof at 1 μM) [1] [%],M1 assay IL6 -max % inhibition (% to no treatment) [2] [%],pIC50 [2],"pEC50 [3, 5]","pEC50 [3, 6]",AHR % activation to Tapinarof at 1 μM [3] [%],"pEC50 [4, 7]","pEC50 [4, 8]",Nrf2 % activation to Tapinarof at 9 μM [4] [%]
"CC(C)c1ncc(/C=C/c2ccccc2)cc1O [Compound 103, (E)-2-isopropyl-5-styrylpyridine-3-ol]",34.0,84.90,7.03,6.78,6.62,69.5,7.15,6.83,78.8
"COc1cc(-c2nc3ccccc3o2)cc(O)c1C(C)C [Compound 122, 5-(benzo[d]oxazol-2-yl)-2-isopropyl-3-methoxyphenol]",39.3,–,–,6.59,6.40,64.4,5.58,–,25.7
"CC(C)c1ncc(-c2nc3ccccc3o2)cc1N [Compound 121, 5-(1,3-benzoxazol-2-yl)-2-isopropylpyridin-3-amine]",–,–,–,–,< 7.00,–,–,6.92,–
CC(C)c1c(O)cc(/C=C/c2ccccc2)cc1F [Compound 135],–,95.30,8.77,–,7.41,–,–,–,–
"CCCc1c(O)cc(/C=C/c2ccccc2)cc1F [Compound 125, 3-fluoro-5-[(E)-2-phenylethenyl]-2-propylphenol]",–,91.70,8.87,–,7.94,–,–,–,–
"CC(C)c1c(O)cc(/C=C/c2ccccc2)cc1O [Tapinarof, reference compound]",100,–,–,–,–,100,7.12 to 7.26,–,–
CC(C)c1c(O)cc(-c2ccc3ccccc3n2)cc1O [Compound 47],–,–,–,–,8.38,–,–,6.28,–
CC(C)c1ncc(-c2nc3ccccc3o2)cc1O [Compound 100],90.5,–,–,7.66,< 6.00,49.7,6.70,6.05,62.3
CC(C)c1c(O)cc(-c2nc3ccccc3[nH]2)cc1O [Compound 50],–,–,–,–,7.76,–,–,7.70,–
COc1cc(/C=C/c2ccccc2)cc(O)c1C(C)(C)O [Compound 111],–,–,–,–,7.41,–,–,7.24,–
"CC(C)Oc1cc(/C=C/c2ccccc2)cc(O)n1 [Compound 106, (E)-6-isopropoxy-4-styrylpyridin-2-ol]",–,–,–,–,6.46,–,–,< 6.40,–
"CC(C)c1ncc(/C=C/c2ccc(F)cc2)cc1O [Compound 114, 5-[(E)-2-(4-fluorophenyl)ethenyl]-2-isopropylpyridin-3-ol]",–,–,–,6.84,6.92,88.5,–,7.72,–
Cc1ccnc2cc(-c3cc(O)c(C(C)C)c(F)c3)ccc12 [Compound 147],–,91.60,10.52,–,–,–,–,–,–
CC(C)c1c(O)cc(-c2cc(F)c3ncccc3c2)cc1F [Compound 145],–,94.10,8.72,–,–,–,–,–,–
Cc1ccnc2cc(-c3cc(O)c(C(C)C)c(O)c3)ccc12 [Compound 22],–,77.20,10.30,–,8.67,–,–,–,–
CC(C)c1ncc(-c2cc3ccccc3cn2)cc1O [Compound 97],78.9,–,–,5.79,6.24,62.6,6.60,6.30,67.2

Compound,CYP1A1 (% activation to Tapinarof at 1 μM) [1] [%],M1 assay IL6 -max % inhibition (% to no treatment) [2] [%],pIC50 [2],"pEC50 [3, 5]","pEC50 [3, 6]",AHR % activation to Tapinarof at 1 μM [3] [%],"pEC50 [4, 7]","pEC50 [4, 8]",Nrf2 % activation to Tapinarof at 9 μM [4] [%]
CCCc1c(O)cc(-c2cnc3c(F)c(F)ccc3c2)cc1F [Compound 155],–,89.10,8.46,–,–,–,–,–,–
CC(C)c1ncc(-c2ccc3ccccc3n2)cc1O [Compound 98],83.6,–,–,3.75,6.39,71.2,7.40,6.86,83.6
CCCc1c(O)cc(-c2ccc3c(C)ccnc3c2)cc1F [Compound 161],–,91.30,8.92,–,–,–,–,–,–
CC(C)c1c(O)cc(-c2cc(F)c3cnc(N)nc3c2)cc1O [Compound 39],–,89.60,9.70,–,8.45,–,–,–,–
"CC(C)c1ncc(/C=C/c2cccc(F)c2)cc1O [Compound 113, (E)-5-(3-fluorostyryl)-2-isopropylpyridin-3-ol]",–,67.80,6.92,–,6.53,–,–,–,–
"COc1cc(/C=C/c2ccccc2)cc(OC)c1C(C)=O [Compound 107, 1-{2,6-dimethoxy-4-[(E)-2-phenylethenyl]phenyl} ethenone]",–,–,–,–,< 7.00,–,–,< 7.00,–
CC(C)c1ncc(-c2cnc3ccccc3c2)cc1O [Compound 99],–,–,–,–,< 7.00,–,–,7.00,–
"COc1cc(Oc2ccccc2)cc(O)c1C(C)C [Compound 133, 2-isopropyl-3-methoxy-5-phenoxyphenol]",–,–,–,–,6.63,–,–,< 6.40,–
CC(C)c1c(O)cc(-c2cc3ccccc3cn2)cc1O [Compound 46],95.3,–,–,7.14,7.41,95.8,7.79,6.78,69.3
"C=C(C)c1c(OC)cc(/C=C/c2ccccc2)cc1OC [Compound 110, 1,3-dimethoxy-5-[(E)-2-phenylethenyl]-2-(prop-1-en-2-yl)benzene]",–,–,–,–,< 7.00,–,–,< 7.00,–
"CC(C)c1ncc(-c2ccc3ccccc3n2)cc1N [Compound 119, 2-isopropyl-5-(quinolin-2-yl)pyridin-3-amine]",0.4,–,–,7.18,–,16.4,6.90,6.89,97.8
CC(C)c1c(O)cc(-c2cc(F)c3cnc(N)nc3c2)cc1F [Compound 149],–,91.10,9.30,–,–,–,–,–,–
CC(C)c1c(O)cc(-c2ccc3cnccc3c2F)cc1F [Compound 139],–,85.80,8.30,–,–,–,–,–,–
CC(C)c1c(O)cc(-c2ccc3cc(F)ccc3n2)cc1F [Compound 143],–,91.80,8.57,–,–,–,–,–,–
"CC(C)c1ncc(/C=C/c2ccccc2F)cc1O [Compound 112, 5-[(E)-2-(2-fluorophenyl)ethenyl]-2-isopropylpyridin-3-ol]",–,77.90,8.80,–,7.00,–,–,7.01,–
CC(C)c1c(O)cc(-c2ccc3ncccc3c2F)cc1F [Compound 140],–,92.30,9.89,–,–,–,–,–,–
